Drawing on patent US20260297542A1, “HERBICIDE RESISTANT PLANTS” (SYNGENTA CROP PROTECTION AG, priority 2023, published 2026), this text covers Rate for one molecule.

Each structure is given as a SMILES string. Residue numbers refer to the chain shown, from its start.

Test [1] deals with T1, His-TEV-AtPP01 ΔcTP L479N (SEQ ID NO: 372) (Arabidopsis thaliana, UniProt P55826, L479N).
T1 construct: with cTPs removed; made in house; host or cells: E. coli BL21 (DE3), His GraviTrap, partially purified
T1 sequence (P55826 with tags, fused parts or gaps L479N): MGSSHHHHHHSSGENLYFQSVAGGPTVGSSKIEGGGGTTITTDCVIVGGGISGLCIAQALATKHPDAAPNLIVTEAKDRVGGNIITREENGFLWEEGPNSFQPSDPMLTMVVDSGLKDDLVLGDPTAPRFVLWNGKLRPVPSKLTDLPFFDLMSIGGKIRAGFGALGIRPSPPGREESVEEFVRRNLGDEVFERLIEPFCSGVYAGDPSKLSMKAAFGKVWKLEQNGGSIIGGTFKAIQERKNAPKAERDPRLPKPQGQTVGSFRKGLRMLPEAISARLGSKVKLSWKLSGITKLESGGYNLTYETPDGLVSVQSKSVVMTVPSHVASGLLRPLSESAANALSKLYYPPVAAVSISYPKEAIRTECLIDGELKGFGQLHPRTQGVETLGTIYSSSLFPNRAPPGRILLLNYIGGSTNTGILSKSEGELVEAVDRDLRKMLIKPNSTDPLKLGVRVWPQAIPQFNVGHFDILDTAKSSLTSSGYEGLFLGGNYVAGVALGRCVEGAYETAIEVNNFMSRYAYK
The test can be described thus: activity rate of PPO variant in in vitro assay. The class given is biochemical. The settings on record: role: substrate; 1 uM protoporphyrinogen IX; no inhibitor. The text has this: (§1) A pET24 plasmid containing a DNA sequence encoding variants of AtPPO1 derived from Arabidopsis thaliana with cTPs removed and both a 6×His tag and TEV protease cleavage tag added at the N-terminus, codon-optimised for expression in E. coli, and under control of a T7 promoter, was synthesised by Twist Bioscience. The following variants were synthesised: WT AtPPO1 (SEQ ID NO: 370), AtPPO1 L479M (SEQ ID NO: 371), AtPPO1 L479N (SEQ ID NO: 372), AtPPO1 S305L Y426V (SEQ ID NO: 374) and AtPPO1 S305L Y426V L479M (SEQ ID NO: 373). This plasmid was expressed in E. coli BL21 (DE3) with 50 μg/mL kanamycin selection. 10 mL of overnight cultures grown at 37° C. were used to inoculate 1 L AIM (AIM-Terrific Broth Base including Trace elements, Formedium) in 2 L shake flasks. Cultures were grown at 37° C., 200 rpm for 3 hours and then overnight at 26° C. Cells were harvested centrifugation. 5-15 g of cell pellet was lysed in and resuspended in ratio of 1:1.5 in lysis buffer (20 mM Tris pH8, 500 mM sodium chloride, 10% glycerol, 1× complete Protease EDTA-free Inhibitor Tablet (Roche), 10 mM imidazole). The resuspension was sonicated at 75% using 10 cycles of 30 seconds, 40 seconds off. After sonication Triton X-100 was added to the lysates at a final concentration of 0.5%. The lysates were centrifuged at 20,000 rpm for 25 min at 4° C. Cleared lysates were loaded on His GraviTrap (Cytiva) columns, washed with 20 mL of lysis buffer and eluted in elution buffer (20 mM Tris pH8, 500 mM sodium chloride, 10% glycerol, 200 mM imidazole, 0.03% (v/v) Triton X-100). The eluate was desalted on a PD10 column and 2.5-3.2 mL was collected. Protein concentration was measured and calculated using the absorbance at 280 nm. Extracts were diluted 1 in 4 and 10 uL was analysed by SDS PAGE.
(§2) Partially purified Protoporphyrinogen Oxidase enzymes were assayed for activity using fluorescence adapted from the method of Shepherd & Dailey (Anal Biochem. 2005 344(1) 115-121). The assay was performed in black 384 well plates with a clear bottom and the total volume of the reaction mixture was 91 ul. The final assay mixture contained 100 mM K2HPO4 pH7.2, 1 mM Na2EDTA, 5 mM DTT, 20% glycerol (v/v), 0.05% Tween 20 (v/v), 1.1% DMSO (v/v), 1 uM protoporphyrinogen IX and 1.5 nM enzyme. Compounds were dissolved in DMSO at 1 mM and a 4-fold serial dilution carried out to give 8 rates. 1 ul was added to the assay mixture. This gave final compound concentrations of 11, 2.7, 0.69, 0.17, 0.04, 0.01, 0.002, 0.0007 uM. Enzyme and inhibitor were preincubated for 5 minutes prior to starting the reaction with the addition of the substrate. […] IC50s were calculated using GraphPad Prism 7.05 nonlinear regression (Table 6). Each compound was tested in duplicate.

For test [2], the target named is T2, His-TEV-AtPP01 ΔcTP V030 (SEQ ID NO: 374) (Arabidopsis thaliana, UniProt P55826, S305L/Y426V).
T2 construct: with cTPs removed; made in house; host or cells: E. coli BL21 (DE3), His GraviTrap, partially purified
T2 sequence (P55826 with tags, fused parts or gaps S305L/Y426V): T1 sequence (P55826 with tags, fused parts or gaps L479N) with S290L, Y411V, N464L
As to the kind of experiment: activity rate of PPO variant in in vitro assay. Format: biochemical. The settings on record: role: substrate; 1 uM protoporphyrinogen IX; no inhibitor.
Excerpt: as §1, §2

Consider `C=Cc1c2[nH]c(c1C)Cc1[nH]c(c(CCC(=O)O)c1C)Cc1[nH]c(c(C)c1CCC(=O)O)Cc1[nH]c(c(C)c1C=C)C2` [protoporphyrinogen IX], for which the Rate in test [1] stood at 13.2 rfu second^−1 pmole^−1; in test [2] it was 5.3 rfu second^−1 pmole^−1.
